Data published in PubChem BioAssay AID2842 (Southern Research Institute, 2010).
Values after ≈ are worked out from the molar mass of the structure shown.

Each molecule was assayed on M. tuberculosis H37Rv growth inhibition (assay: Mycobacterium tuberculosis H37Rv growth inhibition, putative kinase inhibitor library, confirmatory dose response (AID 2842);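 note: bacteria incubated one week before Alamar blue readout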).

Structure (SMILES) | IC90 [mg/L]
O=C(Nc1nnc(-c2ccc3c(c2)CCCC3)o1)c1ccco1 | 0.87 (≈ 2.81 µM)
Cc1cc(Nc2ccc(C)c(C)c2)n2ncc(-c3ccccc3)c2n1 | 3.44 (≈ 10.5 µM)
COC(=O)COc1cccc(/C=C2\Oc3cc(OC)ccc3C2=O)c1 | 17.3 (≈ 50.7 µM)
Cc1ccc(C)c2sc(N(CCCn3ccnc3)C(=O)COc3ccccc3)nc12 | 6.05 (≈ 14.4 µM)
O=C(Nc1nnc(-c2ccccc2)o1)c1nc2ccccc2s1 | 5.84 (≈ 18.1 µM)
COc1ccc(-c2nsc(SCC(=O)Nc3ccc(C(C)=O)cc3)n2)cc1 | 25.9 (≈ 64.9 µM)
COc1ccc(OCc2nc(C#N)c(NCc3ccc(C)cc3)o2)cc1 | 12.1 (≈ 34.7 µM)
CCCCOc1cccc(C(=O)Nc2nnc(-c3cc(C)ccc3C)o2)c1 | 12.4 (≈ 33.9 µM)
CC(C)N1CCc2c(sc(NC(=O)c3cc4c(ccc5ccccc54)oc3=O)c2C(N)=O)C1 | 40.2 (≈ 87 µM)
Cc1[nH]c2ccccc2c1/C=N/NC(=O)c1cc(-c2ccc(Br)s2)[nH]n1 | 12.2 (≈ 28.6 µM)
COc1cccc(Nc2cc(C)nc3c(-c4ccccc4)cnn23)c1 | 1.83 (≈ 5.54 µM)
COc1cccc(-c2nnc(NC(=O)c3ccc(Cl)cc3Cl)o2)c1 | 8.25 (≈ 22.7 µM)
O=C(Nc1nnc(-c2ccc(Br)cc2)o1)c1ccc(S(=O)(=O)N2CCOCC2)cc1 | 5.28 (≈ 10.7 µM)
O=C1CC(c2nc3ccccc3n2Cc2ccccc2Cl)CN1c1ccccc1F (stereo not drawn) | 18.1 (≈ 43.2 µM)
CCOC(=O)c1ccc2nc(NC(=O)C(C)C)sc2c1 | 19.5 (≈ 66.5 µM)
CCOC(=O)N1CCc2c(sc(NC(C)=O)c2C(=O)OC)C1 | 14 (≈ 43 µM)
O=C(Nc1nnc(-c2cccs2)o1)c1cccc(C(F)(F)F)c1 | 3.48 (≈ 10.3 µM)
O=C(CC(SCc1ccco1)c1cccc([N+](=O)[O-])c1)c1ccco1 (stereo not drawn) | < 0.2
N#Cc1ccc(C(=O)Nc2nnc(-c3ccc(Br)cc3)o2)cc1 | 7.39 (≈ 20 µM)
COc1cc(OC)cc(C(=O)N(CCCn2ccnc2)c2nc3c(F)cccc3s2)c1 | 20.6 (≈ 46.8 µM)
Cc1cccc(C(=O)Nc2nnc(-c3ccc(C)cc3C)o2)c1 | 9.06 (≈ 29.5 µM)
CSc1cccc(-c2nnc(NC(=O)c3ccc([N+](=O)[O-])s3)o2)c1 | 1.58 (≈ 4.36 µM)
CCCCOc1ccc(C(=O)N2CC(=O)Nc3ccc(Cl)cc3C2c2ccc(F)cc2)cc1 (stereo not drawn) | 13.1 (≈ 28.1 µM)

Structure (SMILES) | IC90 [mg/L]
CCN(CC)S(=O)(=O)c1ccc(C(=O)Nc2nnc(-c3cc(Cl)ccc3Cl)o2)cc1 | 7.57 (≈ 16.1 µM)
COc1cc2c3nnc(-c4ccc(C)c(C)c4)c-3cn(Cc3ccc(C)cc3)c2cc1OC | 1.55 (≈ 3.54 µM)
O=C(Nc1nnc(-c2ccc(Br)cc2)o1)c1ccc([N+](=O)[O-])cc1 | 50.9 (≈ 131 µM)
CCN1C(=O)c2cccc3c(NC(=O)c4ccc(Cl)s4)ccc1c23 | 8.65 (≈ 24.2 µM)
CCOc1ccc2nc(Nc3nc4c(OC)cccc4s3)sc2c1 | 3.75 (≈ 10.5 µM)
CCc1ccc(-c2ccc(SCC(N)=O)nn2)cc1 | 4.66 (≈ 17 µM)
Cc1ccc2cc(CCNC(=S)NCCn3ccc4ccccc43)c(=O)[nH]c2c1 | 1.26 (≈ 3.11 µM)
Cc1cc(NC2CCCC2)n2ncc(-c3ccccc3)c2n1 | 9.88 (≈ 33.8 µM)
CC(=O)Nc1nnc(-c2cc(C)ccc2C)o1 | 20.2 (≈ 87.3 µM)
Cc1cc(NS(=O)(=O)c2ccc(NC(=O)CCCOc3ccc(Cl)cc3)cc2)no1 | 19.1 (≈ 42.5 µM)
CCCCN1C(=O)c2cccc3c(NC(=O)c4ccc([N+](=O)[O-])s4)ccc1c23 | 22.7 (≈ 57.3 µM)
CCOC(=O)N1CCc2c(sc(NC(=O)c3nc4ccccc4s3)c2C(N)=O)C1 | 3.48 (≈ 8.08 µM)
COc1cccc(-c2csc(NC(=O)C3CCCCC3)n2)c1 | 19.8 (≈ 62.6 µM)
COc1ccc(C(=O)N(CCCn2ccnc2)c2nc3c(C)c(C)ccc3s2)cc1OC | 14.2 (≈ 31.5 µM)
Cc1ccc(C)c(-c2nnc(NC(=O)COc3ccccc3)o2)c1 | 2.24 (≈ 6.93 µM)
O=C(c1ccco1)N(CCCn1ccnc1)c1nc2ccc(F)cc2s1 | 1.94 (≈ 5.24 µM)
O=C(Nc1nnc(-c2ccc(Cl)cc2)o1)c1ccccc1F | 0.72 (≈ 2.27 µM)
Cc1ccc(-n2ncc3c(NCc4cccnc4)ncnc32)cc1C | 6.03 (≈ 18.3 µM)
O=C(CS(=O)(=O)c1ccccc1)Nc1nc(-c2ccc3c(c2)CCCC3)cs1 | 1.02 (≈ 2.47 µM)
O=C(Nc1nnc(-c2ccco2)o1)c1ccccc1F | 6.69 (≈ 24.5 µM)
Cc1cccc2sc(NNC(=O)c3cccc(F)c3)nc12 | 9.09 (≈ 30.2 µM)
CCOC(=O)N1CCc2c(sc(NC(=O)CCSc3ccccc3)c2C(N)=O)C1 | 8.5 (≈ 19.6 µM)
O=C1N/C(=N\N=C\c2ccccc2O)SC1Cc1ccc(F)cc1 (stereo not drawn) | < 0.2

Structure (SMILES) | IC90 [mg/L]
COC(=O)c1c(NC(=O)c2ccc3c(c2)CCCC3)sc2c1CCN(C(C)=O)C2 | 6.21 (≈ 15.1 µM)
Cc1ccc(C(=O)c2cn(Cc3ccc(F)cc3)c3ccc(F)cc3c2=O)cc1 | 12.5 (≈ 32.2 µM)
COc1ccc(-c2noc(-c3cc(C(C)C)[nH]n3)n2)cc1 | 12.2 (≈ 42.8 µM)
Cc1ccc(C)c(-c2nnc(NC(=O)c3cccc([N+](=O)[O-])c3)o2)c1 | 29.6 (≈ 87.4 µM)
COc1ccc(NC(=O)CCCN2C(=O)/C(=C\c3ccco3)SC2=S)cc1 | 3.3 (≈ 8.2 µM)
CC(C)(C)c1ccc(C(=O)Nc2nc(-c3ccc4c(c3)OCO4)cs2)cc1 | 6.72 (≈ 17.7 µM)
Cc1cc(C)c2nc(NNC(=O)c3ccc(N(C)C)cc3)sc2c1 | 3.23 (≈ 9.49 µM)
COc1cccc(C(=O)Nc2nnc(-c3ccc(Cl)cc3)o2)c1 | < 0.2
COc1ccc(N2CC(c3nc4ccccc4n3Cc3ccccc3C)CC2=O)cc1 (stereo not drawn) | 20.1 (≈ 48.8 µM)
COc1ccc2nc(NNC(=O)c3cc4ccccc4oc3=O)sc2c1 | 30.8 (≈ 83.8 µM)
O=C(/C=C/c1ccccc1)Nc1nnc(-c2ccc3c(c2)CCCC3)o1 | 1.67 (≈ 4.83 µM)
Cc1nc2c(ccc3nc(NC(=O)Cc4ccccc4)sc32)s1 | 2.92 (≈ 8.6 µM)
O=C(CN1CCOCC1)Nc1ncc(Cc2cc(Cl)cc(Cl)c2)s1 | 14.9 (≈ 38.5 µM)
CSc1cccc2sc(Nc3cccc(Cl)c3)nc12 | 5.38 (≈ 17.5 µM)
COc1ccc2c(c1)c(=O)c(C(=O)c1ccc(Cl)cc1)cn2Cc1ccccc1 | 6.44 (≈ 15.9 µM)
COc1cccc(-c2nnc(NC(=O)c3cccc(F)c3)o2)c1 | < 0.2
CCc1cccc2sc(N(CCCn3ccnc3)C(=O)c3cc(OC)cc(OC)c3)nc12 | 10.7 (≈ 23.7 µM)
CCOC(=O)CNC(=O)CSc1ncnc2c1nnn2-c1ccc(OC)cc1 | 6.79 (≈ 16.9 µM)
Cc1ccc(C)c(-c2nnc(NC(=O)C3COc4ccccc4O3)o2)c1 (stereo not drawn) | 1.18 (≈ 3.36 µM)
Cc1ccccc1NCCCn1c(C)cn2c3c(=O)[nH]c(=O)n(C)c3nc12 | 15.4 (≈ 41.9 µM)
O=C(Nc1nc(-c2nc3ccccc3s2)cs1)C1COc2ccccc2O1 (stereo not drawn) | 26.8 (≈ 67.8 µM)
O=C(Nc1nnc(-c2ccc(Br)cc2)o1)c1ccccc1F | 4.4 (≈ 12.1 µM)
CC(=O)N1CCc2c(sc(NC(=O)c3cccc(C)c3)c2C(N)=O)C1 | 17.1 (≈ 47.8 µM)

Structure (SMILES) | IC90 [mg/L]
CCOC(=O)N1CCc2c(sc(NC(=O)C3COc4ccccc4O3)c2C(N)=O)C1 (stereo not drawn) | 8.19 (≈ 19 µM)
Cc1ccc(C)c(-c2nnc(NC(=O)c3cccc(F)c3)o2)c1 | 30.9 (≈ 99.2 µM)
C=CCOC(=O)COc1ccc2cc(-c3ccc(Cl)cc3)c(=O)oc2c1 | 2.53 (≈ 6.82 µM)
O=C(Nc1nnc(C2=COCCO2)o1)c1ccc(F)cc1 | 2.21 (≈ 7.59 µM)
CC(=O)N1CCc2c(sc(NC(=O)c3ccc(-c4ccccc4)cc3)c2C(N)=O)C1 | 20.4 (≈ 48.7 µM)
CCN(CC)S(=O)(=O)c1ccc(C(=O)Nc2nnc(-c3cc(C)ccc3C)o2)cc1 | 13.1 (≈ 30.5 µM)
CN(c1ccccc1)S(=O)(=O)c1ccc(C(=O)Nc2nnc(-c3ccco3)o2)cc1 | 8.33 (≈ 19.6 µM)
Cc1ccc(Cn2c(N3CCN(Cc4cccc5ccccc45)CC3)nc3c2c(=O)[nH]c(=O)n3C)cc1 | 25.4 (≈ 51.3 µM)
CCC(=O)Nc1nnc(-c2ccc(Br)cc2)o1 | 6.26 (≈ 21.1 µM)
O=C(Nc1nnc(-c2ccc(F)cc2)o1)c1ccc(Br)s1 | < 0.2
Clc1cccc(N2CCN(c3nc(Nc4ccccc4)c4nccnc4n3)CC2)c1 | 4.58 (≈ 11 µM)
CCS(=O)(=O)c1cccc(C(=O)Nc2nnc(-c3cc(C)ccc3C)o2)c1 | 9.12 (≈ 23.7 µM)
Cc1cc(Cl)ccc1N/C=C(\C#N)c1nc2ccccc2[nH]1 | 23.9 (≈ 77.4 µM)
CCCCOc1ccc(C(=O)Nc2nnc(-c3ccccn3)o2)cc1 | 11.6 (≈ 34.3 µM)
COc1ccc(Cl)c2sc(N(CCCn3ccnc3)C(=O)Cc3ccccc3)nc12 | 1.65 (≈ 3.74 µM)
O=C(Nc1nnc(-c2ccc(Cl)s2)o1)c1ccc(Br)s1 | 11.6 (≈ 29.8 µM)
CCCCC(=O)Nc1nnc(-c2ccc3c(c2)OCCO3)o1 | 9.06 (≈ 29.9 µM)
COC(=O)c1c(NC(=O)c2ccccc2Oc2ccccc2)sc2c1CC(C)(C)NC2(C)C | 37.1 (≈ 79.8 µM)
CCOC(=O)C(C)Sc1ncnc2c1cnn2-c1ccc(F)cc1 (stereo not drawn) | 4.73 (≈ 13.7 µM)
O=C(Nc1nnc(-c2ccc3c(c2)CCCC3)o1)c1ccccc1 | 7.25 (≈ 22.7 µM)
O=C(Nc1cccc(C(F)(F)F)c1)NC1CC(=O)N(c2ccc(F)cc2)C1 (stereo not drawn) | 13.2 (≈ 34.6 µM)
Cc1cccc(C(=O)Nc2nnc(C3=COCCO3)o2)c1 | 3.36 (≈ 11.7 µM)
O=C(c1ccc(F)cc1)N1N=C(c2c(-c3ccccc3)c3cc(Br)ccc3[nH]c2=O)CC1c1ccco1 (stereo not drawn) | 13.1 (≈ 23.5 µM)

Structure (SMILES) | IC90 [mg/L]
O=C(Nc1nnc(-c2ccco2)o1)c1ccc([N+](=O)[O-])cc1 | 35.8 (≈ 119 µM)
COc1ccccc1Cn1cc2c(-c3ccc(F)cc3)nnc-2c2cc(C)ccc21 | 49.2 (≈ 124 µM)
Cc1ccc2sc(N(CCCn3ccnc3)C(=O)c3cccs3)nc2c1C | 0.54 (≈ 1.36 µM)
Cc1c(Cl)ccc2sc(N(CCCn3ccnc3)C(=O)c3ccco3)nc12 | 0.23 (≈ 0.574 µM)
CN(C)S(=O)(=O)c1ccc(C(=O)N2CC(=O)Nc3ccc(Br)cc3C2c2ccccc2)cc1 (stereo not drawn) | 35.3 (≈ 66.8 µM)
CC(=O)N1CCc2c(sc(NC(=O)c3ccccc3Oc3ccccc3)c2C(N)=O)C1 | 18.3 (≈ 42 µM)
O=C(Nc1nnc(-c2cc(Cl)ccc2Cl)o1)c1ccc(Br)s1 | 2.65 (≈ 6.32 µM)
Cc1ccc2sc(N(CCN(C)C)C(=O)c3cccc4ccccc34)nc2c1C | 11.8 (≈ 29.2 µM)
CC(O)CNc1ncnc2c1cnn2-c1ccc(Cl)c(Cl)c1 (stereo not drawn) | 12.5 (≈ 37 µM)
CC(C)N1CCc2c(sc(NC(=O)c3ccc(Oc4ccccc4)cc3)c2C(N)=O)C1 | 12.5 (≈ 28.7 µM)
Cc1ccc2nc(NNC(=O)c3cc4ccccc4oc3=O)sc2c1 | 1.75 (≈ 4.98 µM)
Cc1ccc(-n2ccnc(NCC(C)c3ccccc3)c2=O)cc1C (stereo not drawn) | 18.1 (≈ 54.4 µM)
Clc1ccc(Cn2nnc3c(SCc4cccnc4)ncnc32)cc1 | 13.4 (≈ 36.3 µM)
Cc1ccc(C(=O)Nc2nnc(-c3ccc(C)cc3C)o2)cc1 | 33.5 (≈ 109 µM)
O=C(COc1ccc2c3c(c(=O)oc2c1)CCCC3)OC1CCCCC1 | 9.71 (≈ 27.2 µM)
Cc1ccc(C)c(C(=O)Nc2nnc(-c3cc(C)ccc3C)o2)c1 | 2.56 (≈ 7.97 µM)
CCOc1cc(-c2nnc(NC(=O)c3cc4ccccc4cc3OC)o2)cc(OCC)c1OCC | 2.68 (≈ 5.61 µM)
CCN1C(=O)c2cccc3c(NC(=O)c4ccc(S(=O)(=O)N(C)C)cc4)ccc1c23 | 24.2 (≈ 57.2 µM)
CCOC(=O)c1ccc2nc(Nc3nc4ccc(OC)cc4s3)sc2c1 | 29 (≈ 75.3 µM)
CCOc1cc(-c2nnc(NC(=O)C3=COCCO3)o2)cc(OCC)c1OCC | 7 (≈ 17.3 µM)
COc1cccc(C(=O)Nc2nc3c(s2)CCc2ccccc2-3)c1 | 11.3 (≈ 33.6 µM)
